In ChEMBL document CHEMBL4411314, “Evaluation of Amides, Carbamates, Sulfonamides, and Ureas of 4-Prop-2-ynylidenecycloalkylamine as Potent, Selective, and Bioavailable Negative Allosteric Modulators of Metabotropic Glutamate Receptor 5” (J Med Chem, 2019):

What was measured:
[1] = target: Voltage-dependent L-type calcium channel subunit alpha-1C (Homo sapiens, UniProt Q13936); experiment: Inhibition of Cav1.2 (unknown origin)
[2] = Tmax in dog at 3 mg/kg, po administered as single dose by LC/MS/MS analysis; format: ADME, organism-based, Canis lupus familiaris; details: in vivo
[3] = Half life in dog at 3 mg/kg, po administered as single dose by LC/MS/MS analysis; format: ADME, organism-based, Canis lupus familiaris; details: in vivo
[4] = system: Rattus norvegicus; experiment: Anxiolytic activity in po dosed Wistar Han rat assessed as increase number of electric shock administered as single dose 1 hr before test by vogel conflict test; format: functional, organism-based
[5] = Oral bioavailability in rat at 3 mg/kg administered as single dose by LC/MS/MS analysis; format: ADME, organism-based; details: in vivo
[6] = Clearance in rat at 1 mg/kg, iv administered as single dose by LC/MS/MS analysis; format: ADME, organism-based; details: in vivo
[7] = target: T1, Cytochrome P450 2C8 (Homo sapiens, UniProt P10632); experiment: Inhibition of recombinant human CYP2C8; format: ADME
T1 sequence (P10632 whole entry): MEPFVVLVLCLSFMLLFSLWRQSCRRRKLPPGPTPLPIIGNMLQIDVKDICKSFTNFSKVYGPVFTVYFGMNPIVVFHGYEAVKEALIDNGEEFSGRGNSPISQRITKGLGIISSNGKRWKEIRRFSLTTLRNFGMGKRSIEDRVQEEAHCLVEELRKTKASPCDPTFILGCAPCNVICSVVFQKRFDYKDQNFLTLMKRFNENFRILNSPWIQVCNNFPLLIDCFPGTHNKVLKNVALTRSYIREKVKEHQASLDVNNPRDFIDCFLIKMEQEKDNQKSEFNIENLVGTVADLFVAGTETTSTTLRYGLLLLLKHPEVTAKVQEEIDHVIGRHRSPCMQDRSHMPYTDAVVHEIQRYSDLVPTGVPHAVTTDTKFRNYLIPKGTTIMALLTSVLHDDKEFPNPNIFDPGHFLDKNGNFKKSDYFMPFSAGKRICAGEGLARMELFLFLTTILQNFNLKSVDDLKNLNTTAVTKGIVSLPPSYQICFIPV

[8] = Tmax in rat at 1 mg/kg, iv administered as single dose by LC/MS/MS analysis; format: ADME, organism-based; details: in vivo
[9] = Intrinsic clearance in human liver microsomes at 0.2 mM after 30 mins in presence of NADPH by HPLC-MS/MS analysis; format: ADME, Microsome; details: read-out: CLH
[10] = Metabolic stability in rat liver microsomes assessed as parent compound remaining at 0.2 mM after 30 mins in presence of NADPH by HPLC-MS/MS analysis; format: ADME, Microsome; details: read-out: Stability
[11] = AUC in rat at 1 mg/kg, iv administered as single dose by LC/MS/MS analysis; format: ADME, organism-based; details: in vivo
[12] = Cytotoxicity against human HepG2 cells assessed as inhibition of cell viability at 10 uM relative to control; format: cell-based; details: read-out: GI
[13] = Genotoxicity in Salmonella typhimurium TA98 by Ames test; format: toxicity; details: salmonella enterica subsp. enterica serovar typhimurium
[14] = Half life in dog at 1 mg/kg, iv administered as single dose by LC/MS/MS analysis; format: ADME, organism-based, Canis lupus familiaris; details: in vivo
[15] = Cmax in rat at 3 mg/kg, po administered as single dose by LC/MS/MS analysis; format: ADME, organism-based; design: dose 3 mg/kg, route oral; details: in vivo
[16] = Tmax in rat at 3 mg/kg, po administered as single dose by LC/MS/MS analysis; format: ADME, organism-based; details: in vivo
[17] = target: T2, Cytochrome P450 2B6 (Homo sapiens, UniProt P20813); experiment: Inhibition of recombinant human CYP2B6; format: ADME
T2 sequence (P20813 whole entry): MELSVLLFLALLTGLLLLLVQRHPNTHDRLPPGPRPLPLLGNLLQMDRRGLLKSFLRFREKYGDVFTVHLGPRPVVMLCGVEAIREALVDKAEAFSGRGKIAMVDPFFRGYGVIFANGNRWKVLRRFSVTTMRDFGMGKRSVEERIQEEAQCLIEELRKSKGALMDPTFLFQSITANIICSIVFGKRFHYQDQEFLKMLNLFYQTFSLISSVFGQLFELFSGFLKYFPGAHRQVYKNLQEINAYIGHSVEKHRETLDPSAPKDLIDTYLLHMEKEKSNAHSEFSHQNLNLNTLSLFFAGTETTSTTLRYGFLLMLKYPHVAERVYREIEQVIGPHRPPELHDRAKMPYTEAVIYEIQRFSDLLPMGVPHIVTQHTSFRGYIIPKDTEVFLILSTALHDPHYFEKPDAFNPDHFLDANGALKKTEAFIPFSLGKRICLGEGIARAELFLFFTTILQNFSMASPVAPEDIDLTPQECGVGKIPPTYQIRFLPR

[18] = Half life in human liver microsomes at 0.2 mM after 30 mins in presence of NADPH by HPLC-MS/MS analysis; format: ADME, Microsome
[19] = target: Cytochrome P450 2D6 (Homo sapiens, UniProt P10635); experiment: Inhibition of recombinant human CYP2D6 using 3-[2-(N,N-diethylamino)ethyl]-7-methoxy-4-methylcoumarin as substrate preincubated for 10 mins followed by substrate addition and measured after 30 mins; format: ADME
[20] = Volume of distribution at steady state in rat at 1 mg/kg, iv administered as single dose by LC/MS/MS analysis; format: ADME, organism-based; details: in vivo, read-out: Vdss

Sequence of Voltage-dependent L-type calcium channel subunit alpha-1C (Q13936 whole entry): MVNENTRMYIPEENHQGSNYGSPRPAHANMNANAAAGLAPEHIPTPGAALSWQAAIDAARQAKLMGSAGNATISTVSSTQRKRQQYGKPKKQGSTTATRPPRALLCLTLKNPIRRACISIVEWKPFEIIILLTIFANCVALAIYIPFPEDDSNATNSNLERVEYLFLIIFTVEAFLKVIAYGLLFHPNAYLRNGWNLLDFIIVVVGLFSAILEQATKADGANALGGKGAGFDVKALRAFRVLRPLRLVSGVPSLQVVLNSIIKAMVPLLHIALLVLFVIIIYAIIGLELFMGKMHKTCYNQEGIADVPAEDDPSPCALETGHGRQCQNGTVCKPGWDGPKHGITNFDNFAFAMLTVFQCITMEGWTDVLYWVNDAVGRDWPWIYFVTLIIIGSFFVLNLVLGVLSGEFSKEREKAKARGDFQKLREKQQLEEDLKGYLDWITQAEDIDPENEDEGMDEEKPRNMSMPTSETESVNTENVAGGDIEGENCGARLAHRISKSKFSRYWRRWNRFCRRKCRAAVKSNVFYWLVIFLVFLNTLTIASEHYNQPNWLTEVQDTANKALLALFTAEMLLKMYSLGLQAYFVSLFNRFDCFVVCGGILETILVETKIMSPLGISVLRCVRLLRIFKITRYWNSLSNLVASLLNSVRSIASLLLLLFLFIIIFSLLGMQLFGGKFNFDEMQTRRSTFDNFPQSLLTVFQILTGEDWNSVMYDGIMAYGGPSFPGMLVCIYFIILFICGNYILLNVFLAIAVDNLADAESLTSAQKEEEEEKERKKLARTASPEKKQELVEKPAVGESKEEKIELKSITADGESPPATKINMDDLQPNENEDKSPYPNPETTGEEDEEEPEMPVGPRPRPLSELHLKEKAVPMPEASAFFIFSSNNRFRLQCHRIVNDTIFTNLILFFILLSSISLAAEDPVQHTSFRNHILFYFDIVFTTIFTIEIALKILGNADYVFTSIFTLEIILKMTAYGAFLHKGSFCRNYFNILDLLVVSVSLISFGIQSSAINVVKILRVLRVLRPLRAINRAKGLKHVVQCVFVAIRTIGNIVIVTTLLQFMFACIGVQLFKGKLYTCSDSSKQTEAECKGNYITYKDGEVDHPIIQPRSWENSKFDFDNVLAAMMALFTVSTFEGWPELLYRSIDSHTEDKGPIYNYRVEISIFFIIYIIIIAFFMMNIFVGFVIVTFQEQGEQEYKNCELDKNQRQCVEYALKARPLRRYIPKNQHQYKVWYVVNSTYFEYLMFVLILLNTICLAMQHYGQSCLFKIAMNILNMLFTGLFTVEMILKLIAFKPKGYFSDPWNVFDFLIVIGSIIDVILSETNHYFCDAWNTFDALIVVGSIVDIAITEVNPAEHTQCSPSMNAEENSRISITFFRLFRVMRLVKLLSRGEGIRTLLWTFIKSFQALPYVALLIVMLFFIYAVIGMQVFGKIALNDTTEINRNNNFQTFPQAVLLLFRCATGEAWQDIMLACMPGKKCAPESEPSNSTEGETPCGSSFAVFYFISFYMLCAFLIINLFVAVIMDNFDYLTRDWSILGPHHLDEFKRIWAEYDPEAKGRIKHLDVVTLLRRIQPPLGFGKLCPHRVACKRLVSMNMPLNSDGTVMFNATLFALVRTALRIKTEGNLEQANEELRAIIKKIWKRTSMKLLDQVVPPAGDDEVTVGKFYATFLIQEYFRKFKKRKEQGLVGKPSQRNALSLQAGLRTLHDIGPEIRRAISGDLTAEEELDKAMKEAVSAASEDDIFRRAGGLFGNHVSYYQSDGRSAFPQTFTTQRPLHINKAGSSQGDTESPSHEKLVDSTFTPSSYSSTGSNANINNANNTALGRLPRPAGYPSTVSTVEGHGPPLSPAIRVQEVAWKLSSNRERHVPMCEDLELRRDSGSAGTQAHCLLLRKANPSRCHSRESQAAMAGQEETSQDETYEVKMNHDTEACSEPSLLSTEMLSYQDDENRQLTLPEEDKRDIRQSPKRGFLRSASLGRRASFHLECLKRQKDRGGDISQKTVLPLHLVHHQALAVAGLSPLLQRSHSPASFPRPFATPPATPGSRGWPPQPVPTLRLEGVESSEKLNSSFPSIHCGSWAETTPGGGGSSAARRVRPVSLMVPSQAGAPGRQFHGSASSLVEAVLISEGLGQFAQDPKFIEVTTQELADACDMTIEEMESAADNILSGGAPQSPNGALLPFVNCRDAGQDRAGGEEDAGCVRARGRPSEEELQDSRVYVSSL
Sequence of Cytochrome P450 2D6 (P10635 whole entry): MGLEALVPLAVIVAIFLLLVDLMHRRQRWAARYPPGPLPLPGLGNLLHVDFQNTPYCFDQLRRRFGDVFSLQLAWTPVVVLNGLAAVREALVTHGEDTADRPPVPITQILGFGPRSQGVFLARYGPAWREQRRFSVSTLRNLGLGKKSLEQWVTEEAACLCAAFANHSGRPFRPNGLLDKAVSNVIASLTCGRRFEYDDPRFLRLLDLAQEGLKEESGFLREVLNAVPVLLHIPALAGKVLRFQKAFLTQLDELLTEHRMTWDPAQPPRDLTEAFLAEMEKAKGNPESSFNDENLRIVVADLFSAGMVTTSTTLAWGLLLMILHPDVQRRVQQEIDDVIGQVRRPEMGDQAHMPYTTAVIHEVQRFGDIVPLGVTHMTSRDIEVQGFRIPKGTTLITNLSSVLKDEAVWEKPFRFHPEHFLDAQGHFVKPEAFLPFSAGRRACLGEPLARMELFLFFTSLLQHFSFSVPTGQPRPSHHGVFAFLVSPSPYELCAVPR

Tmax [2]: 15 min
half-life [3]: 121 min
bioavailability [5]: 51%
clearance [6]: 12 mL/min/kg
IC50 [7]: > 20 µM
Tmax [8]: 4.8 min
CLint scaled at 200 µM [9]: 0.39 mL/min/kg
remaining at 0.5 h, 200 µM [10]: 35%
AUC [11]: 1390 ng·h/mL
half-life [14]: 54.6 min
Cmax [15]: 552 ng/mL
Tmax [16]: 60 min
IC50 [17]: > 20 µM
half-life at 200 µM [18]: 770 min
IC50 [19]: > 20 µM
Vd [20]: 0.45 L/kg
SMILES: CCOC(=O)N1CC/C(=C\C#Cc2cccc(C)n2)C1
IC50 [1]: 16.2 µM
Activity [4]: Dose-dependent effect
inhibition at 10 µM [12]: 5%
Activity [13]: Non-Toxic
